Laboratory results reported in patent US7223764B2, “2,4-bis (trifluoroethoxy)pyridine compound and drug containing the compound” (Kowa Co., Ltd., priority 2003, dated 2007).
≈ marks a conversion by molar mass, not a printed value. Where a name gives a salt, the structure may show the parent alone.

Legend:
ACAT = biological target: T1, ACAT (Mus musculus, UniProt Q61263); assay: Test for ACAT inhibitory activity in J774A cells (cholesterol ester production); format: cell-based
T1 construct: endogenous in cells; host or cells: J774 (J774A) cells
T1 sequence (Q61263 1-540): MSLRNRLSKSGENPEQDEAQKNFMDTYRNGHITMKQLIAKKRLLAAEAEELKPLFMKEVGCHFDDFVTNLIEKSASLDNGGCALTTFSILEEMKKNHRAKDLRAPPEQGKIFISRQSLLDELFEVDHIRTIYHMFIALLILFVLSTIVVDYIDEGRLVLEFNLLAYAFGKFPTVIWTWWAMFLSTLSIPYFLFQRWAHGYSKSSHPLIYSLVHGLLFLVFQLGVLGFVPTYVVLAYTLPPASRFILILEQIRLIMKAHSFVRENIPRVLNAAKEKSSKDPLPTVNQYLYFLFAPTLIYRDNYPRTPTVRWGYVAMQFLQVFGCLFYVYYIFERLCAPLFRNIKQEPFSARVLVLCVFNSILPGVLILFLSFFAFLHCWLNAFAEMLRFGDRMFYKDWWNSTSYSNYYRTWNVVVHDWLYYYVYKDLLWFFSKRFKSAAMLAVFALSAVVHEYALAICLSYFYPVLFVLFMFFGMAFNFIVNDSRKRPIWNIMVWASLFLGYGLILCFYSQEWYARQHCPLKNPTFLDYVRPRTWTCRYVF
Protocol: J774 cells (2×10^5 cells/well) were seeded on a 24-well plate and incubated for 24 hours in DMEM (10% FBS, 500 μL). After replacement with a new medium, 25-hydroxycholesterol (10 μg/mL) and ACAT inhibitor (final concentration: 0, 10^−9 to 10^−5 mol/L) were added thereto, followed by incubation for 18 hours. After washing with 0.9% sodium chloride, the lipid was extracted with hexane-isopropanol (3:2) (250 μL) and then with hexane-isopropanol (3:2) (250 μL) again. The extracts were combined, and the solvent was removed. The thus-obtained cholesterol ester (CE) was quantified through the fluorescent enzyme assay. The cells from which the lipid had been extracted were subjected to protein assay (micro BCA assay), to thereby determine the amount of CE per mg of protein.

[1] = Test on stability against metabolism in human liver microsome; format: in vitro ADME; conditions: 30 minutes after initiation of reaction, 37° C., FIG. 1
Protocol: In accordance with Table 2 described below, an NRS (NADPH regenerating system) solution and 16% human serum albumin were added to 0.1 mol/L phosphate buffer (pH 7.4), and a solution of a test compound (100 μM) in acetonitrile (0.01 mL) was added thereto. The mixture was pre-incubated for five minutes in a warm bath at 37° C., and human liver microsome (POOLED HUMAN LIVER MICROSOMES, Lot. No. 20, product of GENTEST) was added thereto, followed by allowing reaction for 30 minutes in a warm bath at 37° C. An aliquot (0.25 mL) was collected from the reaction mixture 0 and 30 minutes after the start of reaction, followed by extraction*. The amount of the test compound was determined through HPLC. Residual percentage of the unchanged compound after 30 minutes was calculated based on the following equation: peak area after 30 minutes/peak area at 0 minute)×100.
To each sample, gkycine buffer (pH 10, 1.0 mL), an internal standard substance (0.1 mL), and tert-butyl methyl ether (5.0 mL) were added. The mixture was shaken for ten minutes and then centrifuged at 2,500 rpm […], and the […] was collected.

[2] = Solubility test (Japanese Pharmacopoeia Solution I); format: physicochemical; conditions: simulated gastric fluid, kinetic from dmso stock, pH 1.2, filtrate through 0.2-μm filter, HPLC
Protocol: Each test compound was dissolved in acetonitrile to form a 100 μM solution, and the solution was added to Japanese Pharmacopoeia Solution I to form a 1000 ng/mL solution. The resultant solution was stirred for ten minutes, and an aliquot (1 mL) was placed into an injection tube and then passed through a 0.2-μm filter (HLC-DISK 13, water/solvent, Kanto Kagaku Kabushiki-kaisya). The filtrate (0.5 mL) was subjected to the extraction procedure*, and the amount of the test compound was determined through HPLC.
(§1) The extraction was performed in a manner similar to that of the test on stability against metabolism in human liver microsome.

[3] = Oral administration test in rats (plasma levels); format: in vivo, rat; conditions: 10 mg/kg p.o.
Protocol: Each test compound was dissolved in a 0.01N hydrochloric acid solution, and the solution was perorally administered to male or female rats at 10 mg/5 mL/kg. Blood samples (0.25 mL each) were collected 30, 60, 120, 180, 240, and 360 minutes after administration. The collected blood samples were centrifuged for five minutes at 4° C. and 9,000 g, to thereby prepare plasma samples. The plasma samples were stored at −30° C. before measurement. The samples were subjected to the extraction procedure*, and plasma levels of the test compound were determined through LC/MS/MS.
as §1

Cc1cc(OCC(F)(F)F)c(NC(=O)CN2CCN(CCSc3nc4ccc(F)cc4[nH]3)CC2)c(OCC(F)(F)F)n1 [Compound (1a), 2-[4-[2-(5-fluorobenzimidazol-2-ylthio)ethyl]piperazin-1-yl]-N-[2,4-bis(2,2,2-trifluoroethoxy)-6-methylpyridin-3-yl]acetamide]
IC50 (ACAT): 0.087 µM
residual percentage of the unchanged compound [1]: 27%
solubility at 10 min [2]: 0.562 µg/mL (≈ 0.9 µM)
AUC ([3]; Female rat): 5.1 µg·h/mL
Cmax ([3]; Female rat): 3.41 µg/mL
AUC ([3]; Male rat): 0.367 µg·h/mL
Cmax ([3]; Male rat): 0.418 µg/mL
melting point: 182 to 182.7 °C

Cc1cc(OCC(F)(F)F)c(NC(=O)CN2CCN(CCSc3nc4cc(F)c(F)cc4[nH]3)CC2)c(OCC(F)(F)F)n1 [Compound (1b), 2-[4-[2-(5,6-difluorobenzimidazol-2-ylthio)ethyl]piperazin-1-yl]-N-[2,4-bis(2,2,2-trifluoroethoxy)-6-methylpyridin-3-yl]acetamide]
IC50 (ACAT): 0.075 µM
residual percentage of the unchanged compound [1]: 62%
solubility at 10 min [2]: 0.422 µg/mL (≈ 0.657 µM)
AUC ([3]; Female rat): 6.55 µg·h/mL
Cmax ([3]; Female rat): 2.84 µg/mL
AUC ([3]; Male rat): 0.917 µg·h/mL
Cmax ([3]; Male rat): 0.614 µg/mL
melting point: 191 to 192 °C

CSc1cc(C)nc(SC)c1NC(=O)CN1CCN(CCSc2nc3ccccc3[nH]2)CC1 [Compound (B).HCl, reference compound]
residual percentage of the unchanged compound [1]: 16%
AUC ([3]; Female rat): 2.47 µg·h/mL
Cmax ([3]; Female rat): 1.17 µg/mL
AUC ([3]; Male rat): 0.2 µg·h/mL
Cmax ([3]; Male rat): 0.207 µg/mL
